# Measured values from ChEMBL document CHEMBL1201862, “PubChem BioAssay data set” (2004).
# The source made the active and inactive calls.
# Experiments:
# Fatty acid synthase [1] = biological target: T1, Fatty acid synthase (Homo sapiens, UniProt P49327); assay: inhibition of human FAS-TE enzyme activity – biochemical, endpoint fluorescence intensity, uHTS hits, dose response (AID 624327); type: functional;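 further: fluorescence from hydrolysis of an O-methyl fluorescein acyl ester substrate by the enzyme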
# T1 sequence (P49327 whole entry): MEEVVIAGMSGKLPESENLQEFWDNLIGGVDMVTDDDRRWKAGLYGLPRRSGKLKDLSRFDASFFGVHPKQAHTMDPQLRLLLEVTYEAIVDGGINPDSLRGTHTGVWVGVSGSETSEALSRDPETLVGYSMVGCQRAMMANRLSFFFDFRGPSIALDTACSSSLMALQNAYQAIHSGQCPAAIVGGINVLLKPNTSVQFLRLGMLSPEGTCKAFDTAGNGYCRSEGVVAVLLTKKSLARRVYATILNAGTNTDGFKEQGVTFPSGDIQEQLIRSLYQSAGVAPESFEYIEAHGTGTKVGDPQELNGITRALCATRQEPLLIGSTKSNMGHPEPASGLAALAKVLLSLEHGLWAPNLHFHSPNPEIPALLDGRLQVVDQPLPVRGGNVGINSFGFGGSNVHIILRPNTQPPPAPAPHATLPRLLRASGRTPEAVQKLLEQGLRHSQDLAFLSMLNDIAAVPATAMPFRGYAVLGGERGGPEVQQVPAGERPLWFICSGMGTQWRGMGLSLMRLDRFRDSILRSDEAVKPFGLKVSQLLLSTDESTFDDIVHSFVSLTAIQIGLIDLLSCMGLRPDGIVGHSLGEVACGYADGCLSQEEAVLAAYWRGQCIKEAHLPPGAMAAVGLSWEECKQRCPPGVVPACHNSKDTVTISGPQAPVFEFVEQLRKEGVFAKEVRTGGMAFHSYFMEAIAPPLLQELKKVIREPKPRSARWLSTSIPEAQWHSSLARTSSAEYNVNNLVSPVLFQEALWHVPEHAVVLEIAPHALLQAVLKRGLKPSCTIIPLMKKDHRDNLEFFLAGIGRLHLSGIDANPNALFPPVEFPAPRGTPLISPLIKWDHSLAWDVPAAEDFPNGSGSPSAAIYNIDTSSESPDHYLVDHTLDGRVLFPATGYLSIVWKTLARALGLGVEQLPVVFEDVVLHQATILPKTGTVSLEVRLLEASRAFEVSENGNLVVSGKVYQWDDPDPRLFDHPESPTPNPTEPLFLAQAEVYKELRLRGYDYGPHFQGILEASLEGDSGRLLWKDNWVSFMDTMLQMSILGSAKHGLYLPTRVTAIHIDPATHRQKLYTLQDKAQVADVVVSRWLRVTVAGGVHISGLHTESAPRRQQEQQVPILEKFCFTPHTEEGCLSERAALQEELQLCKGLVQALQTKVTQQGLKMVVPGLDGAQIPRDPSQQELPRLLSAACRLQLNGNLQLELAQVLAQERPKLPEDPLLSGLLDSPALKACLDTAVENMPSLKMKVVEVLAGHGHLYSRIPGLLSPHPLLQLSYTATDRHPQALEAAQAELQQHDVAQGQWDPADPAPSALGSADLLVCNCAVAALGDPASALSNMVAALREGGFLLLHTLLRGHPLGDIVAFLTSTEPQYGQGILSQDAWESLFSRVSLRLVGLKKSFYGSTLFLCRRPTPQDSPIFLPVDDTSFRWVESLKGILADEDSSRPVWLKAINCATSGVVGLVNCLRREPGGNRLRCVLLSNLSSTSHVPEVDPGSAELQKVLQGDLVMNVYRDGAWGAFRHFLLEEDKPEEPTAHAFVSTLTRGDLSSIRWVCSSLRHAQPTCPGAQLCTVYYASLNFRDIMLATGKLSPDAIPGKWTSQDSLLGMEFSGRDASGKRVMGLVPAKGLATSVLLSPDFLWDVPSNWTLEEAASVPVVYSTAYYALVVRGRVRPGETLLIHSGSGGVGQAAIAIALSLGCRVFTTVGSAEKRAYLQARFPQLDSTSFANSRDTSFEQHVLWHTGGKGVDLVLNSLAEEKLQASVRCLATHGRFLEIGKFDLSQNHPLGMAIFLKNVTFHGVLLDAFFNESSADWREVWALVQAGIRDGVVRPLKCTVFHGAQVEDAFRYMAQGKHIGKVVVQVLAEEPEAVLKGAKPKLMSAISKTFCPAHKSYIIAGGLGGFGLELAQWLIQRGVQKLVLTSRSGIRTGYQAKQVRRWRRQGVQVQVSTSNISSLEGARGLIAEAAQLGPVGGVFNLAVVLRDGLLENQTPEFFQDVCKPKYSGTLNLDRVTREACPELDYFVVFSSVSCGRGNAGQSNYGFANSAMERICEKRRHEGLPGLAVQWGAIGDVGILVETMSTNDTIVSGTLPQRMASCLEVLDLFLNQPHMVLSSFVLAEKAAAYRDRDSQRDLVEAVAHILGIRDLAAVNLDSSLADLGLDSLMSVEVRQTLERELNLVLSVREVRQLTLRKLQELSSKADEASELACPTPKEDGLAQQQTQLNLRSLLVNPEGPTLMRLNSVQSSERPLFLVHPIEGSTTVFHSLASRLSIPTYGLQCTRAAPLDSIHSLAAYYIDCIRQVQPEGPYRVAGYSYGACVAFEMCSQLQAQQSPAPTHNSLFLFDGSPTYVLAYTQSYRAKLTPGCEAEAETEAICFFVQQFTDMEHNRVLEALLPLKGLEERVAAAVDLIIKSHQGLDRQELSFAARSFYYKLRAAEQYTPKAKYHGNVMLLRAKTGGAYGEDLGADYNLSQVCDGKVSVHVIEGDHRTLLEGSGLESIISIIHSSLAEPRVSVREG
# Fatty acid synthase [2] = biological target: T1, Fatty acid synthase; assay: inhibition of human FAS-TE enzyme activity – biochemical, kinetic fluorescence intensity, dose response (AID 624326); type: functional;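 further: rate of fluorescence rise from hydrolysis of a fluorogenic O-methyl fluorescein ester substrate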
# Cytochrome P450 2C9 = Cytochrome P450 2C9 (Homo sapiens, UniProt P11712)
# Sequence of Cytochrome P450 2C9 (P11712 whole entry): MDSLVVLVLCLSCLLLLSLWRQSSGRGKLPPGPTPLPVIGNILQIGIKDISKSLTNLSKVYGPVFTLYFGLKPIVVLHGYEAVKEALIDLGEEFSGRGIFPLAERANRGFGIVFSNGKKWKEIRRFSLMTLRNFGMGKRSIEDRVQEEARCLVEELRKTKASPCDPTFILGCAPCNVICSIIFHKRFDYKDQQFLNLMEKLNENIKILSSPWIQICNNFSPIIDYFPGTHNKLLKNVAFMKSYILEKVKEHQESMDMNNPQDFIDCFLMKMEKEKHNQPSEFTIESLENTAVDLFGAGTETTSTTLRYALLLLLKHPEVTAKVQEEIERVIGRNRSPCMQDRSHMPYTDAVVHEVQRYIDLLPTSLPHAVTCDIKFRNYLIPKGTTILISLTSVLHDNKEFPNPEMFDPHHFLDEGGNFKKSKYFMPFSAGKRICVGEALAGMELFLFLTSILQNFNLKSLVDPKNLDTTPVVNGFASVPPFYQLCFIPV
# Cytochrome P450 2D6 = Cytochrome P450 2D6 (Homo sapiens, UniProt P10635);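 further: CYP2D6 member of a cytochrome P450 panel assay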
# Sequence of Cytochrome P450 2D6 (P10635 whole entry): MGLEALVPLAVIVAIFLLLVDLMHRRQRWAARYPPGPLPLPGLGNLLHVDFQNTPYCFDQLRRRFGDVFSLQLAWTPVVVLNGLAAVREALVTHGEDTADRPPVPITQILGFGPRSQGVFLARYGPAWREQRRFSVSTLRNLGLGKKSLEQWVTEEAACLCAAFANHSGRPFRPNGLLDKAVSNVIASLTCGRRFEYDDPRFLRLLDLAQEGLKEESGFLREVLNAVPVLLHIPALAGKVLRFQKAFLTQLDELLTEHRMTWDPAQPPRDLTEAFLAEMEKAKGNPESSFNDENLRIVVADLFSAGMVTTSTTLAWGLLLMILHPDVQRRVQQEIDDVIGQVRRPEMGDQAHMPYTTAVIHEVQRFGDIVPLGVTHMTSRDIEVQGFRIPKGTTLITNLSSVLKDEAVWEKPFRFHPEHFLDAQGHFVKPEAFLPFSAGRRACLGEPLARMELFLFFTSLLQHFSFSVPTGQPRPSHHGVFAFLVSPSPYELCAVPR
# Leucine aminopeptidase = biological target: T2, Leucine aminopeptidase (Plasmodium falciparum 3D7, UniProt Q8IL11); assay: P. falciparum M17LAP inhibitors, primary screen, biochemical, fluorogenic H-Leu-NHMec substrate, 1536-well (AID 1619); type: functional
# T2 sequence (Q8IL11 whole entry): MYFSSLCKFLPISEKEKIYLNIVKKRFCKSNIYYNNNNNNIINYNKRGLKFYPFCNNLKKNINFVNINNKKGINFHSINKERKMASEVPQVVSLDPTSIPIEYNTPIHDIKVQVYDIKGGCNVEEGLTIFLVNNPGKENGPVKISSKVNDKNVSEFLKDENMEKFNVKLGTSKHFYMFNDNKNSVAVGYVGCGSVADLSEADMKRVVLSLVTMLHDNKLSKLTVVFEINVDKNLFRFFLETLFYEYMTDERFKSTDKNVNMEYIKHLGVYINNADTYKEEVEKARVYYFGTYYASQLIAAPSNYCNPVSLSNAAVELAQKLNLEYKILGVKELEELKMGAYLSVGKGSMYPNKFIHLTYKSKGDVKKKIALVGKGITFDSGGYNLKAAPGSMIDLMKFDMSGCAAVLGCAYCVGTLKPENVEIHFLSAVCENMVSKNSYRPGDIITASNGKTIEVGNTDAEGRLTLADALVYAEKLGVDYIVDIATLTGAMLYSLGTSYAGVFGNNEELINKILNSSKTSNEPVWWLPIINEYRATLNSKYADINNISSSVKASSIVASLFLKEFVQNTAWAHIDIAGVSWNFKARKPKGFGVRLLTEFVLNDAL
# Large T antigen = Large T antigen (Simian virus 40, UniProt P03070); type: functional, Betapolyomavirus macacae;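 further: Confirmatory-stage PubChem screen for compounds that inhibit SV40 T antigen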
# Sequence of Large T antigen (P03070 whole entry): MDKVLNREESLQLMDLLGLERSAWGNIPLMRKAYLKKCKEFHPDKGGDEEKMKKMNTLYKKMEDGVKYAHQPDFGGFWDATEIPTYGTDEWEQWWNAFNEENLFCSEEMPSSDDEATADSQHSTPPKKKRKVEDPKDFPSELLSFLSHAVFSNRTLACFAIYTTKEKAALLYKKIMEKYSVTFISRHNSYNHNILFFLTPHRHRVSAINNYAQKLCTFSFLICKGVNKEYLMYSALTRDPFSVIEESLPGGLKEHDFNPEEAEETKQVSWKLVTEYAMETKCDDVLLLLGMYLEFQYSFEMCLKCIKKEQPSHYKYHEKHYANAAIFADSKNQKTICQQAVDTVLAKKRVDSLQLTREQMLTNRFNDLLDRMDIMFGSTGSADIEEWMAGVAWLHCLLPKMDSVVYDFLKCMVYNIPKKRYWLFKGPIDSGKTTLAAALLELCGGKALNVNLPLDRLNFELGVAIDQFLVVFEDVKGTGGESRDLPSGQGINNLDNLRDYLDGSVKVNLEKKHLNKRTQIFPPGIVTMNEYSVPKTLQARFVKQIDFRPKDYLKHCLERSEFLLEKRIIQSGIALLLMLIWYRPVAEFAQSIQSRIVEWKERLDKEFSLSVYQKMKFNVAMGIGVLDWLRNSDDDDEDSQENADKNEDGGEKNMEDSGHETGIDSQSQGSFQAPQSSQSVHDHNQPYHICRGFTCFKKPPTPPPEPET
# [3] = Luminescence Cell-Based Dose Confirmation HTS to Identify Activators of 5'UTR Stem-Loop Driven Alpha-Synuclein mRNA Translation in H4 Neuroglioblastoma Cells. [Related pubchem assays: 1829 (Project Summary), 1814 (Primary HTS)]; type: functional
# [4] = fluconazole-exposed Candida albicans growth modulators – fluorescence, retest, confirmation (AID 2467); type: functional, cell-based
# H4 = assay: Luminescence Cell-Based Dose Response HTS to Identify Activators of 5'UTR Stem-Loop Driven Prion Protein mRNA Translation in H4 Neuroglioblastoma Cells. [Related pubchem assays: 1829 (Project Summary), 1814 (Primary HTS)]; type: functional; details: Homo sapiens
# [5] = Luminescence Cell-Based Dose Response HTS to Identify Activators of Luciferase Translation or Activity in H4 […] Cells. [Related pubchem assays: 1829 (Project Summary), 1814 (Primary HTS)]; type: functional
# [6] = NIH-3T3 fibroblast cytotoxicity, dose response, cytotoxicity control, cell-based, fluorescence, Alamar Blue, secondary assay (AID 2327); type: functional;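 further: NIH-3T3 mouse fibroblasts cultured with fluconazole at 8 µg/mL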
# [7] = biological target: T3, Replicative DNA helicase DnaB (Mycobacterium tuberculosis, UniProt P9WMR3); assay: DnaB intein splicing inhibitors, dose response, biochemical, cell-free fluorescence (AID 449749); type: functional
# T3 sequence (P9WMR3 whole entry): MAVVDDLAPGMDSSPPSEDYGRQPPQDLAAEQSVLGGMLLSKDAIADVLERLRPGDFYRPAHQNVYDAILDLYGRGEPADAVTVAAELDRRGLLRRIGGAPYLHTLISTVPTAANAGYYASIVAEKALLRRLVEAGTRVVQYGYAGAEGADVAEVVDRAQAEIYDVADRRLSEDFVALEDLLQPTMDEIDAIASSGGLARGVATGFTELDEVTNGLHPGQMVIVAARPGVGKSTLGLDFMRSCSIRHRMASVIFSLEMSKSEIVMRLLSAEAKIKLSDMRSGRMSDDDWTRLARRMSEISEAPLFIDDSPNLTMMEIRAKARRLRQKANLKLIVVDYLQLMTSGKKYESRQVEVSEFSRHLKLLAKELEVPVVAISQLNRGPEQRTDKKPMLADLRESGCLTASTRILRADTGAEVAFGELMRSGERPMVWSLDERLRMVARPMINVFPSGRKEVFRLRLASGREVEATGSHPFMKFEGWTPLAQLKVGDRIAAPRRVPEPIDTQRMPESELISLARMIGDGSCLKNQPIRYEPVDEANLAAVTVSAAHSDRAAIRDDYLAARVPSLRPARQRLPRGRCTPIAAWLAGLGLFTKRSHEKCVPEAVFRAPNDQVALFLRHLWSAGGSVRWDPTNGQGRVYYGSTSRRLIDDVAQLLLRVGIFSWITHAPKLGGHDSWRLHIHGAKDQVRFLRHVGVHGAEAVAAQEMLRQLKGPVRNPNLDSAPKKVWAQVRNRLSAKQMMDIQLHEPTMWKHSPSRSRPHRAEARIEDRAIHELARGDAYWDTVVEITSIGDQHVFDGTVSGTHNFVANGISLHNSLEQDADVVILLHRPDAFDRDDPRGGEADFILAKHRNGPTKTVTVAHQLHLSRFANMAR
# Protein RecA = biological target: T4, Protein RecA (Mycobacterium tuberculosis, UniProt P9WHJ3); assay: Fluorescence Cell-Free Homogeneous Dose Retest to Identify Inhibitors of RecA-Intein Splicing Activity. [Related pubchem assays (depositor defined):AID2097, AID2223, AID489010, AID492950]; type: functional
# T4 sequence (P9WHJ3 whole entry): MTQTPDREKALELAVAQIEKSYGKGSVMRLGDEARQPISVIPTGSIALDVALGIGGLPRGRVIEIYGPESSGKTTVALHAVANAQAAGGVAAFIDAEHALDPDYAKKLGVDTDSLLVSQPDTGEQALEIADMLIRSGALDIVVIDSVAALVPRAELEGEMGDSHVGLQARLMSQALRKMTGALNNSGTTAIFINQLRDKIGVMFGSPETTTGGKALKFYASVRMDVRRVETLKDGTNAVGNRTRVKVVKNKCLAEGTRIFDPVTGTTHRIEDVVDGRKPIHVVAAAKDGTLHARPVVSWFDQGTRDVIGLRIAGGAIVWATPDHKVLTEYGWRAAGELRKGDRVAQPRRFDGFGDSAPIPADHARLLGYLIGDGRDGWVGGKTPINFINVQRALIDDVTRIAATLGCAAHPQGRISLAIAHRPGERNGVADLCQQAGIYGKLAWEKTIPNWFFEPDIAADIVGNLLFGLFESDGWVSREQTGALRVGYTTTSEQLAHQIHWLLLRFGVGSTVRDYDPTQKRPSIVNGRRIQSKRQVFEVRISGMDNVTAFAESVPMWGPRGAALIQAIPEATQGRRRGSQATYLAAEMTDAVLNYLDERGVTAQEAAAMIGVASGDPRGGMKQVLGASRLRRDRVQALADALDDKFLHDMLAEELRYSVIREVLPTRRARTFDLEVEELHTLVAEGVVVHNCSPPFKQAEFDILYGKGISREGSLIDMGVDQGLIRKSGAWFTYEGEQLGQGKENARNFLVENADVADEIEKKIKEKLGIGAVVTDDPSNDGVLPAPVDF
# [8] = biological target: T5, Polyadenylate-binding protein 1 (Homo sapiens, UniProt P11940); assay: MLLE domain peptide-binding blockers, IC50 – biochemical, fluorescence polarization, FITC-PAM2 peptide, dose response (AID 602259); type: functional; details: read-out: IC50_Mean
# [9] = biological target: T5, Polyadenylate-binding protein 1; assay: MLLE binding blockers, Cy5 peptide tracer – biochemical, fluorescence polarization, Cy5-PAM2 peptide, secondary, miRNA deadenylation inhibitor project, dose response (AID 602260); type: functional; details: read-out: IC50_Mean
# [10] = biological target: Glucose-6-phosphate 1-dehydrogenase (Homo sapiens, UniProt P11413); assay: inhibition of Homo sapiens G6PD, dose series – biochemical, fluorescence, selectivity assay for P. falciparum G6PD inhibitor project, dose response (AID 504792); type: functional
# Sequence of Glucose-6-phosphate 1-dehydrogenase (P11413 whole entry): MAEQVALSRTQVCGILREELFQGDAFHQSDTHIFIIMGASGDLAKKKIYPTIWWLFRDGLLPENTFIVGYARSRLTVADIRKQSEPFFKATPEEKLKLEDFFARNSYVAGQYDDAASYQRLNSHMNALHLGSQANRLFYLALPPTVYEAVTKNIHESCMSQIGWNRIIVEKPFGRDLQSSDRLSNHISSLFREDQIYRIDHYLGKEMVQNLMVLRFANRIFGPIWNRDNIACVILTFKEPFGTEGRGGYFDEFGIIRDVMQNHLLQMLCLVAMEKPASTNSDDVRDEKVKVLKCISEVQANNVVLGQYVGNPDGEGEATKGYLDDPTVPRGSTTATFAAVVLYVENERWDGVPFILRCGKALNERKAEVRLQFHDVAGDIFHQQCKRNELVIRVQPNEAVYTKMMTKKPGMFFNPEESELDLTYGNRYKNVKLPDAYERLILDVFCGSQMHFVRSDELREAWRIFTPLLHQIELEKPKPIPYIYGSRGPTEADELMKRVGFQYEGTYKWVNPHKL
# Vero = assay: cells; type: functional; details: Chlorocebus sabaeus
# [11] = NIH3T3 cell viability loss – ATP luminescence, mouse fibroblasts, counter-screen, dose response (AID 2010); type: functional, cell-based;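 further: cells exposed to compound for about 90 hours before reading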
# [12] = Trypanosoma cruzi growth suppression in host cells – NIH3T3 host cells, beta-gal luminescence, confirmation (AID 2044); type: functional, cell-based;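 further: intracellular parasites grown in NIH/3T3 mouse fibroblasts as host cells; luminescent beta-galactosidase reporter signal from transgenic T. cruzi replicating inside host cells; inhibitors lower the luminescence signal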
# [13] = biological target: FAD-linked sulfhydryl oxidase ALR (Homo sapiens, UniProt P55789); assay: ALR-catalysed DTT oxidation blockers – biochemical, H2O2 detection, luminescence, cherry-pick, dose response (AID 493248)
# Sequence of FAD-linked sulfhydryl oxidase ALR (P55789 whole entry): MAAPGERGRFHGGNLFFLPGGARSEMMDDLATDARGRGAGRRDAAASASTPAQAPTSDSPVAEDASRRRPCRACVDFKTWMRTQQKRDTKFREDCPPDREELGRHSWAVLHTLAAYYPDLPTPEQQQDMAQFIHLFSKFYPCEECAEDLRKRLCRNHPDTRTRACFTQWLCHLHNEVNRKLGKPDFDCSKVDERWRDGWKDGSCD
# [14] = reduction of Shn3 3'UTR-driven luciferase in osteoblasts – cell-based, Clone20 osteoblasts, firefly luciferase, cherry-picked, dose response (AID 624132); type: functional;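 further: firefly luciferase luminescence from reporter carrying the Shn3 3'UTR in osteoblasts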
# [15] = non-specific 3'UTR reporter inhibition in Clone20-Shn3RL – cell-based, Renilla luciferase, cherry-picked, counter-screen for Shn3 inhibitor project, dose response (AID 624133); type: functional
structure (smiles),measurement,setting,value
O=c1oc(-c2ccccc2Br)nc2ccccc12,IC50,Fatty acid synthase [1],16.1 µM (active)
same,IC50,Fatty acid synthase [2],13 µM (active)
C[C@@]12C(=O)Nc3cc(F)c(F)cc3C(=O)N1[C@H]1c3ccccc3OC[C@@H]1[C@@H]2c1ccccc1,IC50,Fatty acid synthase [1],16.9 µM (active)
same,IC50,Fatty acid synthase [2],8.59 µM (active)
CCCCOc1ccc(CN2CCC(O)CC2)cc1,AC50,Cytochrome P450 2C9,inconclusive
same,AC50,Cytochrome P450 2D6,0.2 µM (inconclusive)
O=C(CSc1nc[nH]n1)Nc1ccccc1C(=O)O,IC50,Leucine aminopeptidase,35.6 µM (active)
Cc1ccc(SC(C)C(=O)Nc2ccc(S(=O)(=O)N3CCOCC3)cc2)cc1 (configuration not stated),IC50,Leucine aminopeptidase,21.2 µM (active)
COc1cccc(CNc2ccc3[nH]c(O)nc3c2)c1OCc1ccccc1,IC50,Large T antigen,16.5 µM (active)
O=[N+]([O-])c1cc(CS(=O)(=O)Oc2ccc(Cl)cc2)c(O)c([N+](=O)[O-])c1,IC50,Fatty acid synthase [1],16.1 µM (active)
same,IC50,Fatty acid synthase [2],41.7 µM (inactive)
Cc1c(O)c(S(=O)(=O)c2ccccc2)c(=O)n(-c2ccccc2)c1-c1ccccc1,IC50,Leucine aminopeptidase,9.98 µM (active)
Cc1ccc(C2=NNC3(CCOC(C)(C)C3)S2)cc1 (configuration not stated),EC50,[3],14 µM (active)
same,EC50,[4],> 38 µM (not active)
same,EC50,H4,19.1 µM (active)
same,EC50,[5],30.5 µM (active)
same,EC50,[6],> 160 µM (inactive)
CCCCOC(=O)CNc1nnc(SCC(=O)OCC)nc1O,AC50,[7],2.66 µM (active)
same,IC50,Fatty acid synthase [1],7.5 µM (active)
same,EC50,Protein RecA,4.56 µM (active)
same,IC50,[8],> 66 µM (inactive)
same,IC50,[9],> 66 µM (inactive)
same,IC50,Fatty acid synthase [2],9.16 µM (active)
OCCNc1nc(O)nc(O)c1/N=C/c1ccccc1,IC50,[10],14.2 µM (active)
O=C(Cc1ccccc1)N/N=C/c1ccccc1Cl,EC50,[4],> 38 µM (not active)
same,EC50,[6],> 150 µM (inconclusive)
CC(C)Sc1nnc(NC(=O)c2ccc3c(c2)OCO3)s1,IC50,[10],38.9 µM (inactive)
Cc1cccc(-c2nc3ccccc3c(=O)n2NC(=O)/C=C/c2ccc([N+](=O)[O-])cc2)c1,EC50,[4],0.101 µM (active)
same,EC50,[6],> 150 µM (inactive)
CCOC(=O)c1c(NC(=O)COC(=O)c2ccc(S(=O)(=O)C(F)F)cc2)sc(C(=O)N(C)C)c1C,CC50,Vero,> 25 µM (active)
Cc1ccc(-c2nnc(NC(=O)c3ccc([N+](=O)[O-])o3)o2)c(C)c1,EC50,[4],1.85 µM (active)
same,EC50,[6],> 160 µM (inconclusive)
CCCCN(C(=O)/C=C/c1ccco1)c1c(N)n(Cc2ccccc2)c(=O)[nH]c1=O,EC50,[4],> 38 µM (not active)
same,EC50,[6],> 150 µM (inactive)
CNc1ncnc(Sc2ccc(Cl)cc2)c1[N+](=O)[O-],EC50,[11],> 60 µM (not active)
same,EC50,[12],3.2 µM (active)
same,CC50,Vero,> 25 µM (active)
Cc1nn(-c2ccccc2)c(S)c1/C=N/c1ccc([N+](=O)[O-])cc1,IC50,Large T antigen,25.7 µM (active)
COc1cc(C(=O)N/N=C(\C)Cn2nc([N+](=O)[O-])cc2C)ccc1O,IC50,Large T antigen,29.3 µM (active)
COc1cc(C2C3=C(COC3=O)Oc3cc4c(cc32)OCO4)cc(OC)c1OC (configuration not stated),CC50,Vero,< 0.05 µM (active)
COc1cccc(N2C(=O)NC(=O)/C(=C\NCCN3CCOCC3)C2=O)c1,AC50,Cytochrome P450 2C9,inconclusive
COc1ccc(CNc2cc(-c3cccc(NS(C)(=O)=O)c3)ncn2)c(OC)c1,AC50,Cytochrome P450 2C9,inconclusive
same,AC50,Cytochrome P450 2D6,39.8 µM (inconclusive)
Cc1cc(=O)oc2cc(O)ccc12 [HYMECROMONE],AC50,Cytochrome P450 2C9,inconclusive
CCOC(=O)CSc1nnc(-c2ccco2)n1-c1ccc(C)cc1,IC50,Leucine aminopeptidase,37 µM (active)
COc1ccc(CCNC(=O)c2ccc3c(SCC(=O)O)c4c(nc3c2)CCCC4)cc1OC,IC50,Leucine aminopeptidase,23.3 µM (active)
COc1cc(/C=C2\C(=O)NN(c3ccccc3)C2=O)ccc1OCC(N)=O,IC50,Large T antigen,> 100 µM (active)
O=C(/C=C/c1cccc([N+](=O)[O-])c1)NCCSCc1c(Cl)cccc1Cl,IC50,Fatty acid synthase [1],4.12 µM (active)
same,IC50,Fatty acid synthase [2],3.92 µM (active)
Cn1c(=O)oc2cc(S(=O)(=O)Nc3ccc(O)cc3)ccc21,IC50,Large T antigen,4.64 µM (active)
same,AC50,[13],1.49 µM (active)
COc1ccc(/C=C/C(=O)Nc2nc(C)cc(C)n2)cc1OC,AC50,Cytochrome P450 2C9,inconclusive
O=C(COc1cccc2ccccc12)NNC(=O)c1cccs1,AC50,Cytochrome P450 2C9,inconclusive
CC1Cc2ccccc2N1Cc1cccc(S(=O)(=O)N(C)C)c1 (configuration not stated),AC50,[14],33 µM (active)
same,AC50,[15],23.9 µM (active)
CC(=O)c1cccc(-c2ccnc3c2CC(C(=O)Nc2ccc(F)c(Cl)c2)O3)c1 (configuration not stated),IC50,Fatty acid synthase [1],7.72 µM (active)
same,IC50,Fatty acid synthase [2],7.91 µM (active)
